Results published in patent US10315990B2, “Isothiocyanate compounds and isothiocyanate XPO1 protein inhibitor drugs thereof” (DRIVINGFORCE THERAPEUTICS Co., Ltd., priority 2015, dated 2019).

How the values were obtained:
TNF-α = assay: Serum TNF-α level of IBD animal model (ELISA); format: in vivo, SD rats; settings: 80 mg/kg, three days after making the TNBS model
Text: (§1) Inflammatory bowel disease is an autoimmune disease. […] The therapeutic effect of the representative compound for the immune system disease or inflammation can be assessed by detecting change in levels of some important cytokines such as TNF-α and IL-6 at downstream of the signal path.

IBD animal model = assay: Macroscopic pathological changes of IBD animal model (enteroclysis with TNBS); format: in vivo, SD rats; settings: TNBS rats; for Macroscopic pathological score: 80 mg/kg intragastrically daily, score 0-5, 10 animals
Experimental: Eight-week-old male SD rats (10 rats per group) were fasted for 24 hours and anaesthetized with diethyl ether. 50% ethanol and TNBS (2,4,6-trinitrobenzenesulfonic acid) were mixed to prepare a solution. In the IBD model group, a tube made of vinyl resin was inserted 5 cm from anus, and enteroclysis was performed with the TNBS solution in a dose of 100 mg/kg. The rats were hung upside down 30 seconds later after the enteroclysis to ensure no leakage of the TNBS solution. In the control group, the TNBS solution was replaced with normal saline with which enteroclysis was performed. Seven days later after the enteroclysis with the TNBS solution or normal saline, animals were sacrificed and dissected. […] Two weeks later after treated with the drugs, the animals were sacrificed and dissected, and large intestine thereof was taken out and fixed in 4% formalin solution for 30 minutes. The large intestine of the animals was cut lengthwise from the mesentery side to take photos for rectum portion and measure the weight of rectum. Based on the macroscopic observation and judgment score (Table 2-1), ulceration and bleeding states of rectum portion were scored according to the macroscopic observation scoring standard.

IL-6 = assay: Serum IL-6 level of IBD animal model (ELISA); format: in vivo, SD rats; settings: 80 mg/kg, three days after making the TNBS model
Text: as §1

U2932 = assay: Inhibitory activity for high metastasis type lymphoma cell line (MTT or CCK-8); format: cell-based; settings: Homo sapiens; U2932, 72 hours; read-out: IC50
Experimental: (§2) Jeko-1, Raji and U2932 are three typical high metastasis type lymphoma cell lines. The lymphoma cell line was inoculated on 96-well cell culture plate in an amount of 6000 cells per well and cultured at 37° C. for 24 hours, and then treated solely with the compound added therein and cultured. Seventy-two hours later, MTT or CCK-8 method was used to detect the inhibitory activity of the compound for the two high metastasis type lymphoma cell lines.

Raji = assay: as above; format: cell-based; settings: Homo sapiens, 72 hours, read-out: IC50
Experimental: as §2

Jeko-1 = assay: as above; format: cell-based; settings: Homo sapiens; Jeko-1, 72 hours; read-out: IC50
Experimental: as §2

[1] = tested on: SK-OV3 (high metastasis type ovarian cancer cell line); assay: Ovarian cancer intraperitoneal metastasis animal model; format: in vivo, nudemice (BALB/c-nu/nu); settings: Mus musculus, SK-OV-3, ip; for response vs control in vivo at 80 mg/kg: 80 mg/kg intraperitoneal injection once a day for 3 weeks; for mortality at 80 mg/kg: six mice per group, read-out: Mortality (within 30 days) (converted)
Experimental: The ovarian cancer intraperitoneal metastasis animal model is one of most classic animal models for studying anti-ovarian cancer metastasis drug. Sixty 5 to 6-week-old female nudemice with similar weight (BALB/c-nu/nu) were chosen. SK-OV3 (high metastasis type ovarian cancer cell line) stably expressing green fluorescence protein was screened, and prepared into a cell suspension of 2×10^6 cells/100 μl with serum-free PRMI1640 medium. […] Three weeks later, the cancer was detected with a small animal in vivo imaging apparatus (Xenogen, School of Medicine, Shanghai Jiaotong University) and photos thereof were taken. […] In the table, T represents the drug-treated group, and C represents the blank control group. T/C is (V/V0 of compound-treated group)/(V/V0 of blank control group) in which V represents the cancer volume of mouse on the day the detection was performed, and V0 represents the cancer volume of mouse on the day the administration begun.

NCI-H1975 = assay: cells; format: cell-based; settings: Homo sapiens; NCI-H1975, 72 hours; read-out: IC50
Experimental: (§3) NCI-H1975 and NCI-H1650 are two typical high metastasis type lung cancer cell lines. The therapeutic effect of the representative compound for the metastasis type lung cancers can be preliminarily assessed by detecting the inhibitory activity of the representative compound for the two cell lines. The lung cancer cell line was inoculated on 96-well cell culture plate in an amount of 6000 cells per well and cultured at 37° C. for 24 hours, and then treated solely with the compound added therein and cultured. Seventy-two hours later, MTT or CCK-8 method was used to detect the inhibitory activity of the compound for the two lung cancer cell lines.

NCI-H1650 = assay: cells; format: cell-based; settings: Homo sapiens; NCI-H1650, 72 hours; read-out: IC50
Experimental: as §3

HCT116 = assay: Inhibitory activity for high metastasis type colon cancer cell line (MTT or CCK-8); format: cell-based; settings: Homo sapiens, HCT-116; HCT116, 72 hours; read-out: IC50
Experimental: (§4) SW620 and HCT116 are two typical high metastasis type colon cancer cell lines. The colon cancer cell line was inoculated on 96-well cell culture plate in an amount of 6000 cells per well and cultured at 37° C. for 24 hours, and then treated solely with the compound added therein and cultured. Seventy-two hours later, MTT or CCK-8 method was used to detect the inhibitory activity of the compound for the two high metastasis type colon cancer cell lines.

SW620 = assay: as above; format: cell-based; settings: Homo sapiens, SW-620; SW620, 72 hours; read-out: IC50
Experimental: as §4

XPO1 protein = biological target: T1, XPO1 protein (Homo sapiens, UniProt O14980); assay: Inhibitory activity for XPO1 protein (NES-GFP nuclear export, laser confocal microscope); format: cell-based; settings: NES-GFP nuclear export, cells treated for 2 hours
T1 construct: Sixteen hours later, NES-GFP plasmid was transfected with liposome; endogenous in cells
Text: NES (nuclear export signal) is a nuclear export signal peptide recognized by XPO1 protein. XPO1 recognizes NES sequence peptide segment of biomacromolecule and exports the biomacromolecule out of nucleus. NES-GFP protein is obtained by co-expressing green fluorescence protein GFP and NES sequence peptide segment by using a eukaryotic expression plasmid. Inhibitory activity of the representative compound for XPO1 protein can be assessed by detecting influence of the compound on NES-GFP cell localization.
The cells were digested with trypsin, counted, and inoculated on 96-well plate in an amount of 1.5×10^4 cells per well. Sixteen hours later, NES-GFP plasmid was transfected with liposome.

HMLE-Snail cell line = assay: Formation of HMLE-Snail cell line spheroids; format: cell-based; settings: 10 μg/ml, treated for 24 hours; control = 100; read-out: Colony (%): cell colony number of drug-treated group/cell colony number of control group × 100%
Experimental: HMLE-Snail cell line is one of most classic cell models for studying tumor cell metastasis and EMT path. HMLE-Snail cell line highly expresses Snail protein, and thus one of most remarkable features thereof is that it has spherical cellular morphology (spheroid). […] The HMLE-Snail cell line used in the present invention was donated by Dr. Robert Weinberg from America Massachusetts Whitehead Institute. HMLE-Snail cells were suspended in a liquid culture medium (in which B-27 and N-2 were added, purchased from America Invitrogen Corporation) containing DMEM/F12 in a ratio of 1:1, in an amount of 1.0×10^3 cells/ml, and cultured in an ultra low attachment culture plate so as to allow spheroids to be formed. Seven days later, spheroids were collected by centrifugation, and counted. […] Docetaxel is a common clinical chemotherapy drug.

T1 sequence (O14980 whole entry, species assumed): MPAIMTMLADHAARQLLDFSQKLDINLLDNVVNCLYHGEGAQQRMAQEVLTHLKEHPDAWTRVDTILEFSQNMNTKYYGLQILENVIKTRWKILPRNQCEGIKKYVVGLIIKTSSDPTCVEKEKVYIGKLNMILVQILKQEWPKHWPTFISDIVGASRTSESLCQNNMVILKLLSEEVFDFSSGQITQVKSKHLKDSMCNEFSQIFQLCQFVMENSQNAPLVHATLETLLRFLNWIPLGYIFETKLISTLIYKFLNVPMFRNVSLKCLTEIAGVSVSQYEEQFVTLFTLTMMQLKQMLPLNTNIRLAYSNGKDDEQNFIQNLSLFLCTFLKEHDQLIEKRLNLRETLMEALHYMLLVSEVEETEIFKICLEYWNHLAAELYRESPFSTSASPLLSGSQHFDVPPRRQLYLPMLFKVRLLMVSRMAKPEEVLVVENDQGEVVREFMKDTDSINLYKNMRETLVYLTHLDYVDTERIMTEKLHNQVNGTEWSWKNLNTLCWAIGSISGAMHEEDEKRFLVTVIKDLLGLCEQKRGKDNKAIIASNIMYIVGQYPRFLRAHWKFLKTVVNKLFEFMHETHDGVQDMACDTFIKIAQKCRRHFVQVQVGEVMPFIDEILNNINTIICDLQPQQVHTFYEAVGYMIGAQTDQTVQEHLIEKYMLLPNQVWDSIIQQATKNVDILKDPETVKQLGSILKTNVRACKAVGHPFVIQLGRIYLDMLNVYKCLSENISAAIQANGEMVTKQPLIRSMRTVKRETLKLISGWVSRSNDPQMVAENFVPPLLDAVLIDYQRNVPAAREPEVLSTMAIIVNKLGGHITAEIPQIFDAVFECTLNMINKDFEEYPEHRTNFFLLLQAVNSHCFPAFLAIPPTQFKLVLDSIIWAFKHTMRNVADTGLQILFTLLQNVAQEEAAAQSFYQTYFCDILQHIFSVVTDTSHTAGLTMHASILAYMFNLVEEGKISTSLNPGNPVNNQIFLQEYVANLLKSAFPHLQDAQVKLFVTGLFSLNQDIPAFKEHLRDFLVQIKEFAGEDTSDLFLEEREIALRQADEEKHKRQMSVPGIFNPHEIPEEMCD

| SMILES | Serum TNF-α level, Animal-1 (TNF-α) | Serum TNF-α level, Animal-2 (TNF-α) | Serum TNF-α level, Animal-3 (TNF-α) | Macroscopic pathological score (IBD animal model) | Serum IL-6 level, Animal-1 (IL-6) | Serum IL-6 level, Animal-2 (IL-6) | Serum IL-6 level, Animal-3 (IL-6) | response vs control in vivo at 80 mg/kg ([1]; 504 h, read-out: T/C (%)) | mortality at 80 mg/kg ([1]; 720 h) | IC50 (HCT116) | IC50 (SW620) | Activity (μM): inhibitory activity for XPO1 protein (full inhibitory concentration) (XPO1 protein) | activity at 10 µg/mL (HMLE-Snail cell line) | also measured |
| --- | --- | --- | --- | --- | --- | --- | --- | --- | --- | --- | --- | --- | --- | --- |
| Nc1ccc(O)c(C(=O)O)c1 [Compound 5-ASA, 5-aminosalicylic acid, reference compound] | 1.7 ng/mL | 1.8 ng/mL | 2.0 ng/mL | 4.0 ± 0.2 | 2.7 ng/mL | 2.2 ng/mL | 2.3 ng/mL |  |  |  |  |  |  | colon tissue bleeding and ulceration phenomena (in words) (IBD animal model; 80 mg/kg): small relief extent |
| CCC[S+]([O-])/C=C/CCN=C=S (centres unmarked) [Compound F-01, reference compound] | 2.0 ng/mL | 1.7 ng/mL | 1.9 ng/mL |  | 1.8 ng/mL | 1.9 ng/mL | 2.0 ng/mL | 37% | 0% | 3500 nM | 4100 nM | 10 to 15 µM | 60 to 65% | IC50 (U2932): 5200 nM; IC50 (Raji): 3700 nM; IC50 (Jeko-1): 3500 nM; IC50 (NCI-H1975): 6900 nM; IC50 (NCI-H1650): 5400 nM |
| [O-][S+](/C=C/CCN=C=S)c1ccc(Br)cc1 (centres unmarked) [Compound I-02] |  |  |  | 2.0 ± 0.4 |  |  |  |  |  |  |  | 1 to 5 µM | 30 to 35% |  |
| COc1cc([S+]([O-])/C=C/CCN=C=S)cc(OC)c1OC (centres unmarked) [Compound I-06] | 0.9 ng/mL | 0.6 ng/mL | 0.5 ng/mL | 1.0 ± 0.1 | 0.7 ng/mL | 0.5 ng/mL | 0.3 ng/mL |  |  | 100 nM | 150 nM | 0.200 µM | 10 to 15% | IC50 (U2932): 170 nM; IC50 (Raji): 100 nM; IC50 (Jeko-1): 70 nM |
| N#Cc1cc([S+]([O-])/C=C/CCN=C=S)cc(C(F)(F)F)c1 (centres unmarked) [Compound I-08] | 1.0 ng/mL | 1.2 ng/mL | 1.1 ng/mL |  | 0.8 ng/mL | 0.7 ng/mL | 0.8 ng/mL | 23% | 0% |  |  | 0.5 to 1 µM | 15 to 20% | IC50 (NCI-H1975): 170 nM; IC50 (NCI-H1650): 200 nM |
| [O-][S+](/C=C/CCN=C=S)c1ccc2ncccc2c1 (centres unmarked) [Compound I-17] |  |  |  |  |  |  |  | 27% | 0% |  |  | 0.5 to 1 µM | 30 to 35% |  |
| [O-][S+](/C=C/CCN=C=S)c1nc2ccccc2s1 (centres unmarked) [Compound I-20] | 1.3 ng/mL | 1.2 ng/mL | 1.1 ng/mL | 2.0 ± 0.3 | 1.0 ng/mL | 1.1 ng/mL | 1.0 ng/mL |  |  |  |  | 1 to 5 µM | 30 to 35% |  |
| COc1ccc(Sc2ccc([S+]([O-])/C=C/CCN=C=S)cc2)cc1 (centres unmarked) [Compound I-28] |  |  |  |  |  |  |  |  |  | 150 nM | 190 nM | 0.5 to 1 µM | 15 to 20% |  |
| CC(=O)O[C@@]12CO[C@@H]1C[C@H](O)[C@@]1(C)C(=O)[C@H](O)C3=C(C)[C@@H](OC(=O)[C@H](O)[C@@H](NC(=O)OC(C)(C)C)c4ccccc4)C[C@@](O)([C@@H](OC(=O)c4ccccc4)[C@H]21)C3(C)C [Docetaxel, docetaxel] |  |  |  |  |  |  |  |  |  |  |  |  | 81% | response vs control in vivo at 20 mg/kg ([1]; 504 h, 20 mg/kg intraperitoneal injection once a day for 3 weeks, read-out: T/C (%)): 77%; mortality at 20 mg/kg ([1]; 720 h, read-out: Mortality (within 30 days)): 0% |
